In patent US20090130128A1, “Antiinfective Proanthocyanidin Compounds and Methods of Use Thereof” (priority 2007, published 2009):
Where two headings read alike, the source gives them in different places.

What was measured:
[1] = tested on: pseudotyped HIV-1 virions; format: cell-based; conditions: GHOST cells, range over clones
H1N1 virions = assay: Viral Direct Binding Assay with DART TOF-MS; parameters: species or system Influenza A virus (H1N1); conditions: for relative percent of total binding species: bound to H1N1 after incubation in botanical extract
Dengue-2 virus particles = assay: Viral Direct Binding Assay with DART TOF-MS
Rhinovirus particles = format: binding
H5N1 virions = format: binding, Influenza A virus (H5N1); conditions: for relative percent of total binding species: bound to H5N1 after incubation in botanical extract
HIV-1 virions = format: binding
[2] = bound to Den-2 after incubation in botanical extract

Proanthocyanidin B2 was tested. Which “IC100 values for HIV-1 infection” value [1] did it give?
Its value is “never achieved”.

Which results are given for Istrocyanidin?
relative percent of total binding species (H1N1 virions): 3.7%; relative percent of total binding species (Dengue-2 virus particles; [2]): 21.2%; relative percent of total binding species (Rhinovirus particles): 30.5%; relative percent of total binding species (H5N1 virions): 6.2%; relative percent of total binding species (HIV-1 virions): 14.4%

`COc1cc(OC)c2c(=O)c(O)c(-c3ccc(OC)c(OC)c3)oc2c1` [Averionol] was tested. Which “Aver:Istro Ratio” value (H1N1 virions; binding ratio Averionol to Istrocyanidin on H1N1) did it give?
The value was 18.9.

And the “relative percent of total binding species” value (from here on “relative percent”) (H1N1 virions)?
The value was 69.8%.

And the “Aver:Istro Ratio” value (Dengue-2 virus particles)?
The value was 3.7.

What about the “relative percent” value (Dengue-2 virus particles) of the same molecule?
Its value is 78.5%.

What about the “Aver:Istro Ratio” value (Rhinovirus particles) of the same molecule?
The value was 2.3.

And the “relative percent” value (Rhinovirus particles)?
The value was 69.5%.

What about the “Aver:Istro Ratio” value (H5N1 virions; binding ratio Averionol to Istrocyanidin on H5N1) of the same molecule?
The value was 14.0.

What about the “relative percent” value (H5N1 virions) of the same molecule?
The value was 86.9%.

And the “Aver:Istro Ratio” value (HIV-1 virions)?
Its value is 5.9.

What about the “relative percent” value (HIV-1 virions) of the same molecule?
The value was 85.6%.

Which “relative percent” value (H1N1 virions) does the source give for Tristenonol here?
Its value is 26.6%.

And the “relative percent” value (Dengue-2 virus particles; [2])?
Its value is 0%.

And the “relative percent” value (Rhinovirus particles)?
The value was 0%.

And the “relative percent” value (H5N1 virions)?
The value was 6.9%.

And the “relative percent” value (HIV-1 virions)?
The value was 0%.
